Laboratory results taken from US20220072013A1, “Pharmaceutical Combinations for the Treatment of Cancer” (CA*TX, Inc., priority 2018, published 2022).
Entries after “also recorded” stand apart in the source; their conditions may differ.

Experiments:
[1] = test system: global DNA methylation of adenomas in Apc^Min/+ mice; assay: Anti-5-methylcytidine immunostaining of small intestine adenomas (global DNA methylation); format: in vivo
HT29 (APC mutant) cells = assay: DNA methylation (epigenetic) profiling of HT29 cells; format: cell-based, human
Method: FIG. 5 illustrates that Budesonide increases DNA methylation in human CRC cells. To determine if Budesonide increases DNA methylation in human CRC cells, epigenetic profiling was done on HT29 (APC mutant) cells in response to Budesonide exposure. […] A statistically significant shift in CpG methylation occurred at 235 unique CpG sites (out of 1.9 M that were analyzed).

[2] = test system: intestinal tumors in Apc^Min/+ mice; assay: Intestinal tumor development in Apc^Min/+ mice given drug-containing diets; format: in vivo; conditions: for decrease in tumor number: analyzed at 12 weeks; for change in tumor size: started before adenoma development (age 4 to 12 weeks)
Method: FIG. 1 illustrates the decrease in the number of intestinal tumors in Apc^Min/+ mice given Budesonide- or Sulindac-containing diets for 8 or 4 weeks (from age 4 weeks to age 12 weeks or age 8 weeks to age 12 weeks); bars show % change in tumor number compared to untreated C57BL/6 control mice.
FIG. 2 illustrates the change in size of intestinal tumors in Apc^Min/+ mice that were administered Budesonide- or Sulindac containing diets for 8 or 4 weeks (from age 4 weeks to age 12 weeks or age 8 weeks to age 12 weeks); bars show % change in tumor size compared to untreated C57BL/6 control mice.
Budesonide, a steroidal anti-inflammatory drug active against lung cancer development, was investigated as a drug for CRC. Budesonide was evaluated using the murine model for hereditary CRC (FAP) in humans—Apc^Min/+ mice—which, like FAP patients, carry a germline Apc mutation and which spontaneously develop multiple intestinal tumors. The effects of Budesonide were compared to Sulindac as the “gold standard” for an NSAID drug known to inhibit tumor development in Apc^Min mice. The Apc^Min/+ and control mice (C57BL6) were given Budesonide- or Sulindac-containing diets starting at 4 or 8 weeks of age (corresponding, respectively, to ages before and after intestinal tumor development). At 12 weeks, mice were sacrificed and intestines analyzed for adenomas. […] Without wishing to be bound by any particular theory, it is concluded that Budesonide has strong activity against the development of multiple tumors that would otherwise be induced by a variety of Apc mutations (combinations of inherited 1st hit and acquired 2nd hits), and also regression of many tumors after they had already developed.

HT29 CRC cells = assay: Apoptosis in HT29 CRC cells; format: cell-based, human
survivin = assay: Survivin mRNA and protein expression in HT-29 cells (RT-PCR, western blot); format: cell-based, human; conditions: Sulindac 200 μM
Method: RNA and protein expression were measured by RT-PCR and western blot, respectively. FIGS. 3A and 3B show an ethidium bromide-stained gel and graph of quantified data for survivin and Bcl-2 mRNA expression. FIGS. 3C and 3D show a western blot and graph of quantified data for survivin and Bcl-2 protein expression.
Another mechanism attributed to Sulindac's antitumor effects is its ability to induce apoptosis and decrease cell proliferation. This mechanism appears to involve a COX-independent mechanism whereby Sulindac (and other NSAIDs) induce degradation of beta-catenin, inactivation of Tcf-4, reduced expression of an anti-apoptotic protein (survivin; FIG. 3) and increased apoptosis in human CRC cells. […] To that end, survivin and Bcl-2 expression was evaluated in HT-29 cells that were treated with Sulindac (200 μM). RNA and protein expression were measured by RT-PCR and western blot, respectively. FIGS. 3A and 3B show an ethidium bromide-stained gel and graph of quantified data for survivin and Bcl-2 mRNA expression.

[3] = diet started at 4 weeks of age, prior to establishment of intestinal adenomas
[4] = diet started at 8 weeks of age, after adenoma development

With `CCCC1O[C@@H]2C[C@H]3[C@@H]4CCC5=CC(=O)C=C[C@]5(C)[C@H]4[C@@H](O)C[C@]3(C)[C@]2(C(=O)CO)O1` (stereo partly drawn) [Budesonide, budesonide] the “5-methylcytidine immunostaining signal intensity, increase” value [1] was 1.9 fold, the “proportion of cells staining positive for 5-methylcytidine” value [1] was “increase” and the “1 MB domains across the genome showing an increase in methylation versus control” value (HT29 (APC mutant) cells; Budesonide exposure) was 69.3%. The “unique CpG sites with statistically significant shift in CpG methylation” value (HT29 (APC mutant) cells; out of 1.9 M sites analyzed) was 235, the “decrease in tumor number” value [2, 3] was 88% and the “decrease in tumor number” value [2, 4] was 60%. The “change in tumor size” value [2] was “decreased”.
With `CC1=C(CC(=O)O)c2cc(F)ccc2/C1=C\c1ccc([S+](C)[O-])cc1` (stereo not drawn) [Sulindac] the apoptosis (HT29 CRC cells) was “induces apoptosis”, the “decrease in tumor number” value [2, 3] was 90% and the “decrease in tumor number” value [2, 4] was 90%. For the same compound, the “change in tumor size” value [2] was “decreased” and the survivin expression (survivin) was “monotonic decrease; also recorded: attenuates expression”.
